The values that follow are results of earlier work, collected in PMC3388044, “Probing of Exosites Leads to Novel Inhibitor Scaffolds of HCV NS3/4A Proteinase” (PLoS ONE, 2012).

pIC50, pKi: −log10 of the molar value. Read-outs that look alike come from different tables or passages of the source.

The subject of data set [1] is HCV replicon (WT NS3/4A). The settings on record: HCV replicon with luciferase readout; cited from earlier work. (In general: A replicon is a self-replicating genome or part of one, used to study replication in cells.)
Data set [2] deals with HCV replicon (NS3/4A V36M). The conditions noted are these: cited from earlier work; for pIC50: mutant HCV replicon with luciferase readout.
Data set [3] relates to HCV replicon (NS3/4A R155K). The settings on record: cited from earlier work; for pIC50: mutant HCV replicon with luciferase readout.
In data set [4] the test system is HCV replicon (NS3/4A A156T). The conditions noted are these: cited from earlier work; for pIC50: mutant HCV replicon with luciferase readout.
Data set [5] deals with HCV replicon (NS3/4A D168A). The conditions noted are these: cited from earlier work; for D168A FC (replicon): fold change vs WT, mutant HCV replicon; for pIC50: mutant HCV replicon with luciferase readout.
Data set [6] concerns HCV replicon (NS3/4A V170A). The conditions noted are these: cited from earlier work.
The subject of data set [7] is NS3/4A (WT). The settings on record: purified recombinant WT NS3/4A in vitro; read-out: WT IC50 (purified enzyme); cited from earlier work.
In data set [8] the test system is NS3/4A V36M. The conditions noted are these: cited from earlier work.
For data set [9], the system named is NS3/4A R155K. The conditions noted are these: cited from earlier work.
The test system of data set [10] is NS3/4A D168A. The conditions noted are these: cited from earlier work.
Data set [11] addresses NS3/4A. Further details: method as in PMID 19505593. The conditions noted are these: cited from earlier work.
[12] abbreviates: fold change vs WT, mutant HCV replicon.
The mark [13] stands for this setting: fold change vs WT, purified recombinant enzyme.

For `CC(C)(C)NC(=O)N[C@H](C(=O)N1C[C@H]2[C@@H]([C@H]1C(=O)NC(CC1CCC1)C(=O)C(N)=O)C2(C)C)C(C)(C)C` (some centres unmarked) [Boceprevir, boceprevir], the pIC50 was 6.83 in [1]; 6.66 in [2]; 6.13 in data set [3]; 5.14 in data set [4]; 7.00 in data set [5]; 5.81 in data set [6] (mutant HCV replicon with luciferase readout). Further, the “V36M FC (replicon)” value in data set [2] (setting [12]) is 1.8. Moreover, in [3] (setting [12]), the “R155K FC (replicon)” value is recorded as 4.7. The “D168A FC (replicon)” value in data set [5] is recorded as 0.7. Besides, the “V170A FC (replicon)” value in data set [6] (setting [12]) is given as 5.8.

With `CCC[C@H](NC(=O)[C@@H]1[C@H]2CCC[C@H]2CN1C(=O)[C@@H](NC(=O)[C@@H](NC(=O)c1cnccn1)C1CCCCC1)C(C)(C)C)C(=O)C(=O)NC1CC1` [Telaprevir, telaprevir], the pIC50 in [1] is 6.82; in [2], 6.05; in [3] it was 5.83; in [4], 4.69; in [5], 7.34; in data set [7], 7.62. Moreover, the negative-log IC50 (pIC50) was 6.57 in data set [8] (purified recombinant mutant NS3/4A in vitro, read-out: V36M IC50 (purified enzyme)); 6.94 in [9] (purified recombinant mutant NS3/4A in vitro, read-out: R155K IC50 (purified enzyme)); 8.05 in data set [10] (purified recombinant mutant NS3/4A in vitro, read-out: D168A IC50 (purified enzyme)). Further, the “A156T FC (replicon)” value in [4] (setting [12]) was 105. Moreover, the “D168A FC (replicon)” value in data set [5] is 0.4. Also, the “V36M FC (purified enzyme)” value in data set [8] (setting [13]) was 11.3. In addition, the “R155K FC (purified enzyme)” value in [9] (setting [13]) is 4.8. Moreover, in [10] (setting [13]), the “D168A FC (purified enzyme)” value is 0.4. Moreover, the pKi in data set [11] (improved KI after fast covalent bond formation, read-out: KI after covalent bond formation) is roughly 7.40; in data set [11] (initial non-covalent binding step, read-out: KI, non-covalent binding step) it was roughly 5.22.

Broadly, the pIC50 is the negative decadic logarithm of the IC50, by convention in mol/L. One may read the pKi as −log10 of the Ki, conventionally taken in molar units.
